# In patent publication US4797280A, “Antibiotics produced by Kibdelosporangium aridum Shearer gen. nov., sp. nov. ATCC 39323” (SmithKline Beckman Corporation, priority 1986, dated 1989):
# Where a SMILES comes first, the peptide text is derived from it. Bridges are numbered along the chain shown (N, C = ends). [ ]: non-standard residue; d: D form. The star is where a group is joined. Ileψ(thiazoline)Cys = CC[C@H](C)[C@H](N)C1=N[C@H](C(=O)*)CS1; dOrn = NCCC[C@@H](N)C(=O)O
# Legend:
# Kibdelosporangium aridum = assay: Susceptibility of K. aridum to antibiotics, disk diffusion; type: cell-based; settings: 28° C., one week
# Protocol: Susceptibility of K. aridum to antibiotics was examined by placing BBL susceptibility disks on nutrient agar plates seeded with K. aridum as an overlay. Diameters of the zones of inhibition were measured after incubation for one week at 28° C.
# Susceptibility to Antibiotics. […] Chlortetracycline ([…]) produced 18 mm zones of inhibition; tetracycline (5 μg) 11-12 mm zones; rifampin (5 μg) 11-15 mm zones; novobiocin (5 μg) 27-28 mm zones. All zones of inhibition contained at least a few resistant colonies.
# [1] = test system: rumen fluid from dairy cows; assay: Rumen in vitro experiment with dairy cow rumen fluid; settings: about 23 hours
# Protocol: A similar experiment was carried out using rumen fluid from dairy cows fed a typical dairy cow diet of two parts corn silage and three parts dairy concentrate. Specifically, strained rumen fluid (10 ml) was obtained, from an animal fed two hours earlier, via cannula and was mixed with 10 ml of a nutrient broth comprising a 2:3 mix of corn silage and dairy concentrate. After adding a selected growth promotant, the mixture was incubated at 39° C. for about 23 hours, with oscillation.
molecule,measurement,setting,value
CC[C@H](C)[C@H](N)C1=N[C@H](C(=O)N[C@@H](CC(C)C)C(=O)N[C@H](CCC(=O)O)C(=O)N[C@H](C(=O)N[C@H]2CCCCNC(=O)[C@H](CC(N)=O)NC(=O)[C@@H](CC(=O)O)NC(=O)[C@H](Cc3cnc[nH]3)NC(=O)[C@@H](Cc3ccccc3)NC(=O)[C@H]([C@@H](C)CC)NC(=O)[C@@H](CCCN)NC2=O)[C@@H](C)CC)CS1 [bacitracin] ({Ileψ(thiazoline)Cys}-L[dE]IK[dOrn]I[dF]H[dD]N; lactam 4-C),Susceptibility of K. aridum,Kibdelosporangium aridum; disk 2 units,resistant
CC(=O)OCC1=C(C(=O)O)N2C(=O)[C@@H](NC(=O)Cc3cccs3)[C@H]2SC1 [cephalothin],Susceptibility of K. aridum,Kibdelosporangium aridum; disk 30 μg,resistant
Avoparcin,% PR,[1]; 0.5 ppm,101% OF CONTROL
same,ACE,[1]; 0.5 ppm,100% OF CONTROL
same,AMO,[1]; 0.5 ppm,79% OF CONTROL
same,BUT,[1]; 0.5 ppm,100% OF CONTROL
same,DLAC,[1]; 0.5 ppm,0% OF CONTROL
same,ETOH,[1]; 0.5 ppm,0% OF CONTROL
same,GLU,[1]; 0.5 ppm,0% OF CONTROL
same,IBU,[1]; 0.5 ppm,122% OF CONTROL
same,IVA,[1]; 0.5 ppm,101% OF CONTROL
same,LLAC,[1]; 0.5 ppm,0% OF CONTROL
same,LYS,[1]; 0.5 ppm,91% OF CONTROL
same,NH--N,[1]; 0.5 ppm,92% OF CONTROL
same,PRO,[1]; 0.5 ppm,102% OF CONTROL
same,TOTAL,[1]; 0.5 ppm,1200% OF CONTROL
same,VAL,[1]; 0.5 ppm,97% OF CONTROL
same,% PR,[1]; 5 ppm,113% OF CONTROL
same,ACE,[1]; 5 ppm,94% OF CONTROL
same,AMO,[1]; 5 ppm,107% OF CONTROL
same,BUT,[1]; 5 ppm,91% OF CONTROL
same,DLAC,[1]; 5 ppm,0% OF CONTROL
same,ETOH,[1]; 5 ppm,0% OF CONTROL
same,GLU,[1]; 5 ppm,0% OF CONTROL
same,IBU,[1]; 5 ppm,146% OF CONTROL
same,IVA,[1]; 5 ppm,115% OF CONTROL
same,LLAC,[1]; 5 ppm,0% OF CONTROL
same,LYS,[1]; 5 ppm,92% OF CONTROL
same,NH--N,[1]; 5 ppm,122% OF CONTROL
same,PRO,[1]; 5 ppm,112% OF CONTROL
same,TOTAL,[1]; 5 ppm,99% OF CONTROL
same,VAL,[1]; 5 ppm,103% OF CONTROL
same,% PR,[1]; 50 ppm,128% OF CONTROL
same,ACE,[1]; 50 ppm,108% OF CONTROL
same,AMO,[1]; 50 ppm,123% OF CONTROL
same,BUT,[1]; 50 ppm,88% OF CONTROL
same,DLAC,[1]; 50 ppm,0% OF CONTROL
same,ETOH,[1]; 50 ppm,0% OF CONTROL
same,GLU,[1]; 50 ppm,0% OF CONTROL
same,IBU,[1]; 50 ppm,116% OF CONTROL
same,IVA,[1]; 50 ppm,104% OF CONTROL
same,LLAC,[1]; 50 ppm,0% OF CONTROL
same,LYS,[1]; 50 ppm,88% OF CONTROL
same,NH--N,[1]; 50 ppm,148% OF CONTROL
same,PRO,[1]; 50 ppm,137% OF CONTROL
same,TOTAL,[1]; 50 ppm,107% OF CONTROL
same,VAL,[1]; 50 ppm,99% OF CONTROL
Saloinomycin,% PR,[1]; 0.5 ppm,126% OF CONTROL
same,ACE,[1]; 0.5 ppm,95% OF CONTROL
same,AMO,[1]; 0.5 ppm,117% OF CONTROL
same,BUT,[1]; 0.5 ppm,83% OF CONTROL
same,DLAC,[1]; 0.5 ppm,0% OF CONTROL
same,ETOH,[1]; 0.5 ppm,0% OF CONTROL
same,GLU,[1]; 0.5 ppm,0% OF CONTROL
same,IBU,[1]; 0.5 ppm,153% OF CONTROL
same,IVA,[1]; 0.5 ppm,110% OF CONTROL
same,LLAC,[1]; 0.5 ppm,0% OF CONTROL
same,LYS,[1]; 0.5 ppm,119% OF CONTROL
same,NH--N,[1]; 0.5 ppm,136% OF CONTROL
same,PRO,[1]; 0.5 ppm,124% OF CONTROL
same,TOTAL,[1]; 0.5 ppm,99% OF CONTROL
same,VAL,[1]; 0.5 ppm,94% OF CONTROL
same,% PR,[1]; 5 ppm,152% OF CONTROL
same,ACE,[1]; 5 ppm,99% OF CONTROL
same,AMO,[1]; 5 ppm,226% OF CONTROL
same,BUT,[1]; 5 ppm,66% OF CONTROL
same,DLAC,[1]; 5 ppm,0% OF CONTROL
same,ETOH,[1]; 5 ppm,0% OF CONTROL
same,GLU,[1]; 5 ppm,0% OF CONTROL
same,IBU,[1]; 5 ppm,108% OF CONTROL
same,IVA,[1]; 5 ppm,75% OF CONTROL
same,LLAC,[1]; 5 ppm,0% OF CONTROL
same,LYS,[1]; 5 ppm,117% OF CONTROL
same,NH--N,[1]; 5 ppm,116% OF CONTROL
same,PRO,[1]; 5 ppm,148% OF CONTROL
same,TOTAL,[1]; 5 ppm,98% OF CONTROL
same,VAL,[1]; 5 ppm,83% OF CONTROL
same,% PR,[1]; 50 ppm,188% OF CONTROL
same,ACE,[1]; 50 ppm,76% OF CONTROL
same,AMO,[1]; 50 ppm,268% OF CONTROL
same,BUT,[1]; 50 ppm,63% OF CONTROL
same,DLAC,[1]; 50 ppm,0% OF CONTROL
same,ETOH,[1]; 50 ppm,0% OF CONTROL
same,GLU,[1]; 50 ppm,0% OF CONTROL
same,IBU,[1]; 50 ppm,61% OF CONTROL
same,IVA,[1]; 50 ppm,46% OF CONTROL
same,LLAC,[1]; 50 ppm,0% OF CONTROL
same,LYS,[1]; 50 ppm,114% OF CONTROL
same,NH--N,[1]; 50 ppm,82% OF CONTROL
same,PRO,[1]; 50 ppm,168% OF CONTROL
same,TOTAL,[1]; 50 ppm,89% OF CONTROL
same,VAL,[1]; 50 ppm,60% OF CONTROL
